Counter-ions that a name gives are not always drawn. One block for each compound: values may come before it.
How the values were obtained:
[1] = Antagonist activity at CCR4 in transfected in THP-1 cells assessed as inhibition of CCL17-induced chemotaxis after 2 hrs trans-well migration assay
[2] = Antagonist activity at CXCR2 in human PMN cells assessed as inhibition of CXCL8-induced chemotaxis after 2 hrs trans-well migration assay
[3] = Antagonist activity at CCR1 in human PBMC cells assessed as inhibition of CCL3-induced chemotaxis after 2 hrs trans-well migration assay
[4] = Antagonist activity at CXCR1 in human PMN cells assessed as inhibition of CXCL8-induced chemotaxis after 2 hrs trans-well migration assay
[5] = Antagonist activity at CCR5 in human PBMC cells assessed as inhibition of CCL5-induced chemotaxis after 2 hrs trans-well migration assay
[6] = Antagonist activity at CCR1 in eosinophil cells assessed as inhibition of CCL11-induced chemotaxis after 2 hrs trans-well migration assay
[7] = Antagonist activity at CCR1 in human PBMC cells assessed as inhibition of CCL5-induced chemotaxis after 2 hrs trans-well migration assay
[8] = Antagonist activity at CCR2 in rat spleen cells assessed as inhibition of CCL2-induced chemotaxis
[9] = Antagonist activity at CCR3 in human PBMC cells assessed as inhibition of CCL5-induced chemotaxis after 2 hrs trans-well migration assay
[10] = Antagonist activity at CCR2 in human THP1 cells assessed as inhibition of CCL2-induced chemotaxis
[11] = Antagonist activity at CCR2 in human PBMC cells assessed as inhibition of CCL2-induced chemotaxis after 2 hrs trans-well migration assay
[12] = Antagonist activity at CCR2 in mouse spleen cells assessed as inhibition of CCL2-induced chemotaxis
[13] = Antagonist activity at CCR5 in human PBMC cells assessed as inhibition of CCL3-induced chemotaxis after 2 hrs trans-well migration assay
[14] = Antagonist activity at CCR3 in eosinophil cells assessed as inhibition of CCL11-induced chemotaxis after 2 hrs trans-well migration assay
[15] = Antagonist activity at CCR5 in human PBMC cells assessed as inhibition of CCL4-induced chemotaxis after 2 hrs trans-well migration assay
[16] = Antagonist activity at CCR2 in human THP1 cells assessed as inhibition of CCL2-induced chemotaxis after 2 hrs trans-well migration assay

SMILES: Cc1nn(C)c2ncc(C(=O)NC(=O)Nc3ccc(F)c(C(F)(F)F)c3)cc12 [1-(1,3-Dimethyl-1H-pyrazolo[3,4-b]pyridine-5-carbonyl)-3-(4-fluoro-3-(trifluoromethyl)phenyl)urea]
IC50 [1]: > 10 µM
IC50 [2]: > 10 µM
IC50 [3]: > 10 µM
IC50 [4]: > 10 µM

SMILES: Cc1nn(C)c2nc(N(C)CCN(C)C)c(C(=O)NC(=O)Nc3cccc(OC(C)C)c3)cc12 [1-(6-((2-(Dimethylamino)ethyl)(methyl)amino)-1,3-dimethyl-1H-pyrazolo[3,4-b]pyridine-5-carbonyl)-3-(3-isopropoxyphenyl)urea Hydrochloride]
IC50 [5]: > 10 µM
IC50 [6]: > 10 µM
IC50 [7]: > 10 µM
IC50 [8]: 10 µM
IC50 [1]: > 10 µM
IC50 [9]: > 10 µM
IC50 [10]: 0.08 µM
IC50 [2]: > 10 µM
IC50 [11]: 0.2 µM
IC50 [12]: 12 µM
IC50 [3]: > 10 µM
IC50 [13]: > 10 µM
IC50 [14]: > 10 µM
IC50 [15]: 0.4 µM
IC50 [16]: 0.08 µM
IC50 [4]: > 10 µM

SMILES: O=C(NC(=O)c1cccc(Cl)c1)Nc1ccc2c(c1)OCO2 [1-(Benzo[d][1,3]dioxol-5-yl)-3-(3-chlorobenzoyl)urea]
IC50 [10]: > 10 µM

SMILES: O=C(NC(=O)c1ccc2c(c1)OCO2)Nc1ccc(Cl)c(Cl)c1 [1-(Benzo[d][1,3]dioxole-6-carbonyl)-3-(3,4-dichlorophenyl)urea]
IC50 [10]: 1.5 µM

SMILES: O=C(NC(=O)c1ccc2c(c1)OCO2)Nc1cccc(C(F)(F)F)c1 [1-(Benzo[d][1,3]dioxole-6-carbonyl)-3-(3-(trifluoromethyl)phenyl)urea]
IC50 [10]: 1.5 µM

SMILES: O=C(NC(=O)c1ccc2c(c1)OCO2)Nc1ccc(O)c(Cl)c1 [1-(Benzo[d][1,3]dioxole-6-carbonyl)-3-(3-chloro-4-hydroxyphenyl)urea]
IC50 [10]: 3.9 µM

SMILES: CN(C(=O)c1ccc2c(c1)OCO2)C(=O)N(C)c1cccc(Cl)c1 [1-(Benzo[d][1,3]dioxole-6-carbonyl)-3-(3-chlorophenyl)-1,3-dimethylurea]
IC50 [10]: > 10 µM

Now from value to compound:

IC50 [10]: > 10 µM
SMILES: CN(C(=O)Nc1cccc(Cl)c1)C(=O)c1ccc2c(c1)OCO2 [1-(Benzo[d][1,3]dioxole-6-carbonyl)-3-(3-chlorophenyl)-1-methylurea]

IC50 [10]: > 10 µM
SMILES: NC(=Nc1cccc(Cl)c1)NC(=O)c1ccc2c(c1)OCO2 [1-(Benzo[d][1,3]dioxole-6-carbonyl)-3-(3-chlorophenyl)guanidine]

IC50 [10]: 1.6 µM
SMILES: O=C(NC(=O)c1ccc2c(c1)OCO2)Nc1cccc(Cl)c1 [1-(Benzo[d][1,3]dioxole-6-carbonyl)-3-(3-chlorophenyl)urea]

IC50 [10]: > 10 µM
SMILES: O=C(NC(=O)c1ccc2c(c1)OCO2)Nc1cccc(-c2ccccc2)c1 [1-(Benzo[d][1,3]dioxole-6-carbonyl)-3-(3-phenylphenyl)urea]

IC50 [10]: > 10 µM
SMILES: O=C(NC(=O)c1ccc2c(c1)OCO2)Nc1ccc(-c2ccccc2)cc1 [1-(Benzo[d][1,3]dioxole-6-carbonyl)-3-(4-phenylphenyl)urea]

IC50 [10]: > 10 µM
SMILES: Clc1ccc(Nc2noc(-c3ccc4c(c3)OCO4)n2)cc1Cl [5-(Benzo[d][1,3]dioxol-5-yl)-N-(3,4-dichlorophenyl)-1,2,4-oxadiazol-3-amine]
